The target of this assay is T1, KAT6A (Homo sapiens, UniProt Q92794).
T1 construct: expressed in transfected cells; host or cells: HeLa
The assay can be described thus: HiBit KAT6A Degradation Assessment. The format is cell-based. Particulars: HeLa cells with a HiBit tagged KAT6A; for Dmax: HeLa. The procedure:
The degradation activity of compounds was evaluated by measuring levels of KAT6A protein using the HiBiT system. These studies were conducted in HeLa cells with a HiBit tagged KAT6A. Cells were maintained in a 37° C. incubator at 5% CO2 in EMEM or DMEM (ATCC, 30-2003) supplemented with 10% v/v FBS (Gibco, 26140-079) and 1% penicillin streptomycin. Cells were seeded in 384-well plates at a density of 2,000 cells/well. Compounds dissolved in DMSO were added in 9-point serial dilution. After 18-24 h of treatment, KAT6A levels were measured using the Nano-Glo® HiBiT Lytic Detection System (Promega catalog number N3030) per manufacturer's instructions. Luminescence signal was measured with a multimode plate reader (Envision 2105, Perkin Elmer or PHERAStar FSX, BMG Labtech). Luminescence values were normalized to background and DMSO controls to quantify KAT6A for each condition. Results were analyzed, and DC50 and Dmax values obtained using a four-parameter logistic curve fit. The results are summarized in Table 3 (18 h of treatment) and Table 4 (24 h of treatment).
(In general: With HiBiT, luminescence reflects the tagged protein that the partner subunit can reach.)

Structures are written as SMILES.

A word on the DC50: it is the midpoint of the concentration-degradation curve. The low end stands for degradation at low concentration, the high end for degradation only at high concentration. As usually defined, the Dmax is the greatest extent of degradation seen. The low end stands for shallow degradation, the high end for deep degradation.

T1 sequence (Q92794 whole entry): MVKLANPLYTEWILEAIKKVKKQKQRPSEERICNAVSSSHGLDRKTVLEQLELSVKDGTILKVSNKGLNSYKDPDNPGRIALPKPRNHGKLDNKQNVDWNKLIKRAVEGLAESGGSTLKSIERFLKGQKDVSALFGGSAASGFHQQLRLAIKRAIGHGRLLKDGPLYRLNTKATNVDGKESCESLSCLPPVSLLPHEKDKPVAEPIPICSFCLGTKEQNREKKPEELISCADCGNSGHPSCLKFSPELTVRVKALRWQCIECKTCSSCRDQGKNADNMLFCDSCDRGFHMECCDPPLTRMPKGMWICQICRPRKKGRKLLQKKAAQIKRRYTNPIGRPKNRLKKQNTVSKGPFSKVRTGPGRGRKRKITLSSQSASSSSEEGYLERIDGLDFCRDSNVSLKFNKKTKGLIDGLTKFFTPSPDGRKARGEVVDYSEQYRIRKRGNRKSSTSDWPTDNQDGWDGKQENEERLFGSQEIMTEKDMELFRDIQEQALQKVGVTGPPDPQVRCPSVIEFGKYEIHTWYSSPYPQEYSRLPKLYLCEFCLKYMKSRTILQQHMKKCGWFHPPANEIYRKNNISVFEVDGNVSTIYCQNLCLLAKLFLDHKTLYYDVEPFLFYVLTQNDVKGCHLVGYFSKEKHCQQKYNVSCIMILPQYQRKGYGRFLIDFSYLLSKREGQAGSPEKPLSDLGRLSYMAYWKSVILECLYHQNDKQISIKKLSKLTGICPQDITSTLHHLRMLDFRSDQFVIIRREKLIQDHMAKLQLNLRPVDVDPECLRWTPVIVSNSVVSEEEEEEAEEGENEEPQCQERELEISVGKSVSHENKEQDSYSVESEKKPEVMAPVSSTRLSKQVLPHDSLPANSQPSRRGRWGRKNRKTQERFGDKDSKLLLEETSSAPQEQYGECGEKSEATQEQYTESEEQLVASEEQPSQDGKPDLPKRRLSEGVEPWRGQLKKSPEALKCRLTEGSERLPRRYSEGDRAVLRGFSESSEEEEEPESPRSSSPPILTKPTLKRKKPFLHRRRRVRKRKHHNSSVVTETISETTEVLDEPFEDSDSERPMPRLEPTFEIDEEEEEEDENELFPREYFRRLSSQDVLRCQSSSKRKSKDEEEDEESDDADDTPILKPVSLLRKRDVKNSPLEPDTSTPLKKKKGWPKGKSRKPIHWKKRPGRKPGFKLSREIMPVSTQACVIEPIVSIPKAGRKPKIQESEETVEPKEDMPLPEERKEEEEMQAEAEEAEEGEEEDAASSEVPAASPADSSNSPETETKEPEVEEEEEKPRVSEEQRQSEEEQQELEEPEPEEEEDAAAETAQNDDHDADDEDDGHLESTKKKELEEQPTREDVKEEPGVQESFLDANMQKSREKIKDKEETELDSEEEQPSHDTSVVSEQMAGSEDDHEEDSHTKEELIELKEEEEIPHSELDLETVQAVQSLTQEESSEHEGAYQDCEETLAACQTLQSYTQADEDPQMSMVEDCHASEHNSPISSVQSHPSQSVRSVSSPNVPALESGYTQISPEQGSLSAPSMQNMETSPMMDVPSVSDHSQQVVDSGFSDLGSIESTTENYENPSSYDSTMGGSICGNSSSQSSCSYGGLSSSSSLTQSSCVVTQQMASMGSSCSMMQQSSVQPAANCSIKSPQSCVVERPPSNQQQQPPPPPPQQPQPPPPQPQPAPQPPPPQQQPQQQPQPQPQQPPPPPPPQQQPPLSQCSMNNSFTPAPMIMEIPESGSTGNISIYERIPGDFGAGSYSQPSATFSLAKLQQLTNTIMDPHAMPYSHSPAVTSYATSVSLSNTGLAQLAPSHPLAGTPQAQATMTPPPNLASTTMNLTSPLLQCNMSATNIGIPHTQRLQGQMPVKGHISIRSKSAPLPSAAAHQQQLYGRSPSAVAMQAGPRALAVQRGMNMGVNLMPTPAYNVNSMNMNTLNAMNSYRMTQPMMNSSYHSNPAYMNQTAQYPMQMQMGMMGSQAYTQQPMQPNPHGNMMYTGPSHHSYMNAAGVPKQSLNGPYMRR

`O=C1CC[C@H](N2Cc3cc(N4CC[C@@H](CN5CCC6(CC5)CN(c5cccc(S(=O)(=O)Nc7noc8cc(Cn9cccn9)c9c(c78)OCC9)c5)C6)C4)ccc3C2=O)C(=O)N1` [Example 1, N-(4-((1H-Pyrazol-1-yl)methyl)-2,3-dihydrobenzofuro[7,6-d]isoxazol-8-yl)-3-(7-(((S)-1-(2-((S)-2,6-dioxopiperidin-3-yl)-1-oxoisoindolin-5-yl)pyrrolidin-3-yl)methyl)-2,7-diazaspiro[3.5]nonan-2-yl)benzenesulfonamide] yielded a DC50 (18 h of treatment) of less than 10 nM and a DC50 (24 h of treatment) of 10 to 100 nM. For the same compound, the Dmax reads like this: (18 h of treatment) greater than 75%; (24 h of treatment) 50 to 75%.

Under “18 h of treatment”, `O=C1CC[C@H](N2Cc3cc(N4CC[C@@H](CN5C[C@H]6CN(c7cccc(S(=O)(=O)Nc8noc9cc(Cn%10cccn%10)c%10c(c89)OCC%10)c7)C[C@@H]6C5)C4)ccc3C2=O)C(=O)N1` [Example 2, N-(4-((1H-Pyrazol-1-yl)methyl)-2,3-dihydrobenzofuro[7,6-d]isoxazol-8-yl)-3-((3aS,6aS)-5-(((S)-1-(2-((S)-2,6-dioxopiperidin-3-yl)-1-oxoisoindolin-5-yl)pyrrolidin-3-yl)methyl)hexahydropyrrolo[3,4-c]pyrrol-2(1H)-yl)benzenesulfonamide] yielded a DC50 of 10 to 100 nM and a Dmax greater than 75%.

As for `O=C1CC[C@H](N2Cc3cc(N4CC[C@@H](CN5CCC6(CC5)CCN(c5cccc(S(=O)(=O)Nc7noc8cc(Cn9cccn9)c9c(c78)OCC9)c5)CC6)C4)ccc3C2=O)C(=O)N1` [Example 3, N-(4-((1H-Pyrazol-1-yl)methyl)-2,3-dihydrobenzofuro[7,6-d]isoxazol-8-yl)-3-(9-(((S)-1-(2-((S)-2,6-dioxopiperidin-3-yl)-1-oxoisoindolin-5-yl)pyrrolidin-3-yl)methyl)-3,9-diazaspiro[5.5]undecan-3-yl)benzenesulfonamide], where the note is “18 h of treatment”, the DC50 fell in the range of 10 to 100 nM and the maximal degradation (Dmax) was greater than 75%.

With `O=C1CC[C@H](N2Cc3cc(N4CC[C@@H](CN5CC6(CCN(c7cccc(S(=O)(=O)Nc8noc9cc(Cn%10cccn%10)c%10c(c89)OCC%10)c7)CC6)C5)C4)ccc3C2=O)C(=O)N1` [Example 4, N-(4-((1H-Pyrazol-1-yl)methyl)-2,3-dihydrobenzofuro[7,6-d]isoxazol-8-yl)-3-(2-(((S)-1-(2-((S)-2,6-dioxopiperidin-3-yl)-1-oxoisoindolin-5-yl)pyrrolidin-3-yl)methyl)-2,7-diazaspiro[3.5]nonan-7-yl)benzenesulfonamide], under “18 h of treatment”, the DC50 was in the range of 10 to 100 nM and the Dmax is greater than 75%.

In turn, `O=C1CC[C@H](N2Cc3cc(N4CC[C@@H](CNC5CCN(c6cccc(S(=O)(=O)Nc7noc8cc(Cn9cccn9)c9c(c78)OCC9)c6)CC5)C4)ccc3C2=O)C(=O)N1` [Example 5, N-(4-((1H-Pyrazol-1-yl)methyl)-2,3-dihydrobenzofuro[7,6-d]isoxazol-8-yl)-3-(4-((((S)-1-(2-((S)-2,6-dioxopiperidin-3-yl)-1-oxoisoindolin-5-yl)pyrrolidin-3-yl)methyl)amino)piperidin-1-yl)benzenesulfonamide] yielded a Dmax (18 h of treatment) of 25 to 50%.

Under “18 h of treatment”, `O=C1CCC(N2C(=O)c3ccc(N4CCC5(CC4)CC(N4CCN(c6cccc(S(=O)(=O)Nc7noc8cc(Cn9cccn9)c9c(c78)OCC9)c6)CC4)C5)cc3C2=O)C(=O)N1` (stereo not shown) [Example 6, N-(4-((1H-Pyrazol-1-yl)methyl)-2,3-dihydrobenzofuro[7,6-d]isoxazol-8-yl)-3-(4-(7-(2-(2,6-dioxopiperidin-3-yl)-1,3-dioxoisoindolin-5-yl)-7-azaspiro[3.5]nonan-2-yl)piperazin-1-yl)benzenesulfonamide] returned a 50% degradation concentration (DC50) of 100 to 1000 nM and a maximal degradation (Dmax) of 50 to 75%.

As for `O=C1CCC(N2C(=O)c3cccc(N4CCC(CN5CCN(c6cccc(S(=O)(=O)Nc7noc8cc(Cn9cccn9)c9c(c78)OCC9)c6)CC5)CC4)c3C2=O)C(=O)N1` (stereo not shown) [Example 7, N-(4-((1H-Pyrazol-1-yl)methyl)-2,3-dihydrobenzofuro[7,6-d]isoxazol-8-yl)-3-(4-((1-(2-(2,6-dioxopiperidin-3-yl)-1,3-dioxoisoindolin-4-yl)piperidin-4-yl)methyl)piperazin-1-yl)benzenesulfonamide], under “18 h of treatment”, the DC50 fell in the range of 100 to 1000 nM and the greatest degradation seen (Dmax) was in the range of 50 to 75%.

For the setting “18 h of treatment”, `O=C1CCC(N2C(=O)c3ccc(N4CCC(CN5CCC(CN6CCN(c7cccc(S(=O)(=O)Nc8noc9cc(Cn%10cccn%10)c%10c(c89)OCC%10)c7)CC6)CC5)C4)cc3C2=O)C(=O)N1` (stereo not shown) [Example 8, N-(4-((1H-Pyrazol-1-yl)methyl)-2,3-dihydrobenzofuro[7,6-d]isoxazol-8-yl)-3-(4-((1-((1-(2-(2,6-dioxopiperidin-3-yl)-1,3-dioxoisoindolin-5-yl)pyrrolidin-3-yl)methyl)piperidin-4-yl)methyl)piperazin-1-yl)benzenesulfonamide] returned a DC50 of less than 10 nM and a Dmax greater than 75%.

Under “18 h of treatment”, `O=C1CCC(N2C(=O)c3ccc(N4CCC(CN5CCC(CN6CCN(c7cccc(S(=O)(=O)Nc8noc9cc(Cn%10cccn%10)c%10c(c89)OCC%10)c7)CC6)CC5)CC4)cc3C2=O)C(=O)N1` (stereo not shown) [Example 9, N-(4-((1H-Pyrazol-1-yl)methyl)-2,3-dihydrobenzofuro[7,6-d]isoxazol-8-yl)-3-(4-((1-((1-(2-(2,6-dioxopiperidin-3-yl)-1,3-dioxoisoindolin-5-yl)piperidin-4-yl)methyl)piperidin-4-yl)methyl)piperazin-1-yl)benzenesulfonamide] showed a half-maximal degradation concentration (DC50) of less than 10 nM and a Dmax of 50 to 75%.

Turning to `COc1ccc(N2CC3(CCN(C[C@@H]4CCN(c5ccc6c(c5)CN([C@H]5CCC(=O)NC5=O)C6=O)C4)CC3)C2)c(OC)c1S(=O)(=O)Nc1noc2cc(Cn3cccn3)c3c(c12)OCC3` [Example 10, N-(4-((1H-Pyrazol-1-yl)methyl)-2,3-dihydrobenzofuro[7,6-d]isoxazol-8-yl)-3-(7-(((S)-1-(2-((S)-2,6-dioxopiperidin-3-yl)-1-oxoisoindolin-5-yl)pyrrolidin-3-yl)methyl)-2,7-diazaspiro[3.5]nonan-2-yl)-2,6-dimethoxybenzenesulfonamide], under “24 h of treatment”, the 50% degradation concentration (DC50) was less than 10 nM and the greatest degradation seen (Dmax) was greater than 75%.

Under “24 h of treatment”, `COc1ccc(N2CC3(CCN(CC4CCN(c5ccc6c(c5)C(=O)N(C5CCC(=O)NC5=O)C6=O)CC4)CC3)C2)c(OC)c1S(=O)(=O)Nc1noc2cc(Cn3cccn3)c3c(c12)OCC3` (stereo not shown) [Example 11, N-(4-((1H-Pyrazol-1-yl)methyl)-2,3-dihydrobenzofuro[7,6-d]isoxazol-8-yl)-3-(7-((1-(2-(2,6-dioxopiperidin-3-yl)-1,3-dioxoisoindolin-5-yl)piperidin-4-yl)methyl)-2,7-diazaspiro[3.5]nonan-2-yl)-2,6-dimethoxybenzenesulfonamide] came in with a 50% degradation concentration (DC50) of less than 10 nM and a maximal degradation (Dmax) of 50 to 75%.

Under “24 h of treatment”, `COc1c(N2CC3(CCN(CC4CCN(c5ccc6c(c5)C(=O)N(C5CCC(=O)NC5=O)C6=O)CC4)CC3)C2)cccc1S(=O)(=O)Nc1noc2cc(Cn3cccn3)c3c(c12)OCC3` (stereo not shown) [Example 12, N-(4-((1H-Pyrazol-1-yl)methyl)-2,3-dihydrobenzofuro[7,6-d]isoxazol-8-yl)-3-(7-((1-(2-(2,6-dioxopiperidin-3-yl)-1,3-dioxoisoindolin-5-yl)piperidin-4-yl)methyl)-2,7-diazaspiro[3.5]nonan-2-yl)-2-methoxybenzenesulfonamide] registered a half-maximal degradation concentration (DC50) of 10 to 100 nM and a Dmax greater than 75%.

As to `COc1c(N2CC3(CCN(C[C@@H]4CCN(c5ccc6c(c5)CN([C@H]5CCC(=O)NC5=O)C6=O)C4)CC3)C2)cccc1S(=O)(=O)Nc1noc2cc(Cn3cccn3)c3c(c12)OCC3` [Example 13, N-(4-((1H-Pyrazol-1-yl)methyl)-2,3-dihydrobenzofuro[7,6-d]isoxazol-8-yl)-3-(7-(((S)-1-(2-((S)-2,6-dioxopiperidin-3-yl)-1-oxoisoindolin-5-yl)pyrrolidin-3-yl)methyl)-2,7-diazaspiro[3.5]nonan-2-yl)-2-methoxybenzenesulfonamide], where the note is “24 h of treatment”, the 50% degradation concentration (DC50) was less than 10 nM and the Dmax is greater than 75%.

With `COc1c(N2CC3(CCN(CC4CCN(c5cccc6c5C(=O)N(C5CCC(=O)NC5=O)C6=O)CC4)CC3)C2)cccc1S(=O)(=O)Nc1noc2cc(Cn3cccn3)c3c(c12)OCC3` (stereo not shown) [Example 14, N-(4-((1H-Pyrazol-1-yl)methyl)-2,3-dihydrobenzofuro[7,6-d]isoxazol-8-yl)-3-(7-((1-(2-(2,6-dioxopiperidin-3-yl)-1,3-dioxoisoindolin-4-yl)piperidin-4-yl)methyl)-2,7-diazaspiro[3.5]nonan-2-yl)-2-methoxybenzenesulfonamide], under “24 h of treatment”, the DC50 is less than 10 nM and the Dmax is greater than 75%.

`O=C1CC[C@H](N2Cc3cc(N4CC[C@@H](CN5CCC6(CC5)CN(c5ccc(S(=O)(=O)Nc7noc8cc(Cn9cccn9)c9c(c78)OCC9)cc5)C6)C4)ccc3C2=O)C(=O)N1` [Example 15, N-(4-((1H-Pyrazol-1-yl)methyl)-2,3-dihydrobenzofuro[7,6-d]isoxazol-8-yl)-4-(7-(((S)-1-(2-((S)-2,6-dioxopiperidin-3-yl)-1-oxoisoindolin-5-yl)pyrrolidin-3-yl)methyl)-2,7-diazaspiro[3.5]nonan-2-yl)benzenesulfonamide]: for the setting “24 h of treatment”, the half-maximal degradation concentration (DC50) was in the range of 10 to 100 nM and the maximal degradation (Dmax) lay in the range of 50 to 75%.

These data come from patent US20250161289A1, “KAT6 Targeting Compounds” (Prelude Therapeutics Incorporated, priority 2023, published 2025).
